Experimental data taken from patent US7504362B2, “Pesticidal compositions” (Merial Limited, priority 2002, dated 2009).

Test system: Ctenocephalides felis, Diabrotica undecimpunctata, Nephotettix cincticeps or Rhipicephalus sanguineus
Assay: Pooled statement: active in one or more of the above tests (Methods A to E)
Type: in vivo
Conditions: active = reaching the threshold of Method A, B, C, D or E; test not given per compound
Procedure: The following representative test procedures, using compounds of the invention, were conducted to determine the parasiticidal and pesticidal activity of compounds of the invention.
A test container was filled with 10 adults of Ctenocephalides felis. A glass cylinder was closed on one end with parafilm and placed on top of the test container. The test compound solution was then pipetted into bovine blood and added to the glass cylinder. The treated Ctenocephalides felis were held in this artificial dog test (blood 37° C., 40-60% relative humidity; Ctenocephalides felis 20-22° C., 40-60% relative humidity) and assessment performed at 24 and 48 hours after application. Active compounds gave at least 90% control of Ctenocephalides felis at a test concentration of 5 ppm or less.
Two days before application, seeds of maize were soaked in water under warm conditions to elicit fast germination. One day before application, eggs of Diabrotica undecimpunctata were transferred to one half of a Japanese filter paper placed in a plastic petri dish. Afterwards, a sprouted maize seed was placed on a moistened pad beside the filter paper. Three drops of 200 microliters of test compound solution were carefully pipetted onto the egg. The remainder of the solution was placed on the maize and then the Petri dish was closed. The treated eggs in the Petri dishes were held in a climate chamber for 6 days. The compound efficacy (percentage of dead eggs and/or larvae in comparison to untreated control) was assessed 6 days after application using a binocular microscope.
Active compounds gave at least 90% control of Diabrotica undecimpunctata at a test concentration of 10 ppm.
The leaves of 12 rice plants having a stem length of 8 cm were dipped for 5 seconds into an aqueous solution of the formulated test compound. After the solution had run off, the rice plants treated in this manner were placed in a Petri dish and populated with about 20 larvae (L3 stage) of Nephotettix cincticeps. The Petri dish was closed and then stored in a climate chamber (16 hours of light/day, 25° C., 40-60% relative humidity). After 6 days storage, the percentage mortality of leafhopper larvae was determined.
Active compounds gave at least 98% mortality of Nephotettix cinciceps larvae at a test concentration of 100 ppm.
Solutions of the test compounds were dropped onto filter paper, dried and the filter paper placed into test tubes and infested with 10 adults of Ctenocephalides felis. The treated Ctenocephalides felis were held in a climate chamber (26° C., 80% RH) and the percentage efficacy assessed 24 hours and 48 hours after application in comparison with the untreated control.
Active compounds gave at least 70% contact control of Ctenocephalides felis at a test concentration of 1000 ppm.
Solutions of the test compounds were dropped onto filter paper, dried and the filter paper placed into test tubes and infested with 20-30 larvae (L1) of Rhipicephalus sanguineus and the tubes closed with a clip. The treated Rhipicephalus sanguineus were held in a climate chamber (25° C., 90% RH) and the percentage efficacy assessed 24 hours after application in comparison with the untreated control. Active compounds gave at least 70% contact control of Rhipicephalus sanguineus at a test concentration of 100 ppm.

SMILES	active in one or more of the above tests
CS(=O)(=O)Nc1c(SC(F)(F)F)c(C#N)nn1-c1c(Cl)cc(C(F)(F)F)cc1Cl [Compound 1-1]	active
CN(c1c(SC(F)(F)F)c(C#N)nn1-c1c(Cl)cc(C(F)(F)F)cc1Cl)S(C)(=O)=O [Compound 1-2]	active
CN(c1c([S+]([O-])C(F)(F)F)c(C#N)nn1-c1c(Cl)cc(C(F)(F)F)cc1Cl)S(C)(=O)=O (centres unmarked) [Compound 1-16]	active
CCS(=O)(=O)N(C)c1c(SC(F)(F)F)c(C#N)nn1-c1c(Cl)cc(C(F)(F)F)cc1Cl [Compound 1-44]	active
CCS(=O)(=O)N(C)c1c(S(=O)(=O)C(F)(F)F)c(C#N)nn1-c1c(Cl)cc(C(F)(F)F)cc1Cl [Compound 1-72]	active
CC(C)S(=O)(=O)N(C)c1c([S+]([O-])C(F)(F)F)c(C#N)nn1-c1c(Cl)cc(C(F)(F)F)cc1Cl (centres unmarked) [Compound 1-85]	active
CCCCS(=O)(=O)N(C)c1c([S+]([O-])C(F)(F)F)c(C#N)nn1-c1c(Cl)cc(C(F)(F)F)cc1Cl (centres unmarked) [Compound 1-87]	active
CN(c1c([S+]([O-])C(F)(F)F)c(C#N)nn1-c1c(Cl)cc(C(F)(F)F)cc1Cl)S(=O)(=O)C(F)(F)F (centres unmarked) [Compound 1-90]	active
CCCCCCCCS(=O)(=O)N(C)c1c([S+]([O-])C(F)(F)F)c(C#N)nn1-c1c(Cl)cc(C(F)(F)F)cc1Cl (centres unmarked) [Compound 1-93]	active
CCCCCCCCCS(=O)(=O)N(C)c1c([S+]([O-])C(F)(F)F)c(C#N)nn1-c1c(Cl)cc(C(F)(F)F)cc1Cl (centres unmarked) [Compound 1-94]	active
CCCCCCCCCCS(=O)(=O)N(C)c1c([S+]([O-])C(F)(F)F)c(C#N)nn1-c1c(Cl)cc(C(F)(F)F)cc1Cl (centres unmarked) [Compound 1-95]	active
CCCCCCCCCCCCS(=O)(=O)N(C)c1c([S+]([O-])C(F)(F)F)c(C#N)nn1-c1c(Cl)cc(C(F)(F)F)cc1Cl (centres unmarked) [Compound 1-96]	active
C=CS(=O)(=O)N(C)c1c([S+]([O-])C(F)(F)F)c(C#N)nn1-c1c(Cl)cc(C(F)(F)F)cc1Cl (centres unmarked) [Compound 1-97]	active
CN(c1c([S+]([O-])C(F)(F)F)c(C#N)nn1-c1c(Cl)cc(C(F)(F)F)cc1Cl)S(=O)(=O)C=Cc1ccccc1 (centres unmarked) [Compound 1-114]	active
CN(c1c(S(=O)(=O)C(F)(F)F)c(C#N)nn1-c1c(Cl)cc(C(F)(F)F)cc1Cl)S(=O)(=O)C=Cc1ccccc1 [Compound 1-115]	active
CS(=O)(=O)[N-]c1c(SC(F)(F)F)c(C#N)nn1-c1c(Cl)cc(C(F)(F)F)cc1Cl.[Na+] [Compound 1-116]	active
CCS(=O)(=O)Nc1c([S+]([O-])C(F)(F)F)c(C#N)nn1-c1c(Cl)cc(C(F)(F)F)cc1Cl (centres unmarked) [Compound 1-117]	active
CN(c1c([S+]([O-])C(F)(F)F)c(C#N)nn1-c1c(Cl)cc(C(F)(F)F)cc1Cl)S(=O)(=O)C(Cl)(Cl)Cl (centres unmarked) [Compound 1-118]	active
CN(c1c([S+]([O-])C(F)(F)F)c(C#N)nn1-c1c(Cl)cc(C(F)(F)F)cc1Cl)S(=O)(=O)C(Cl)Cl (centres unmarked) [Compound 1-119]	active

SMILES	active in one or more of the above tests
CCCCS(=O)(=O)N(C)c1c(S(=O)(=O)C(F)(F)F)c(C#N)nn1-c1c(Cl)cc(C(F)(F)F)cc1Cl [Compound 1-120]	active
CN(c1c(S(=O)(=O)C(F)(F)F)c(C#N)nn1-c1c(Cl)cc(C(F)(F)F)cc1Cl)S(=O)(=O)CCCCl [Compound 1-121, 1-(2,6-Dichloro-4-trifluoromethylphenyl)-5-[N-(3-chloropropylsulfonyl)-N-methylamino]-3-cyano-4-trifluoromethylsulfonylpyrazole]	active
CC(C)S(=O)(=O)N(C)c1c(SC(F)(F)F)c(C#N)nn1-c1c(Cl)cc(C(F)(F)F)cc1Cl [Compound 1-122]	active
CCCCCCCCS(=O)(=O)N(C)c1c([S+]([O-])C(F)(F)F)c(C#N)nn1-c1c(Cl)cc(C(F)(F)F)cc1Cl (centres unmarked) [Compound 1-123]	active
CCCCCCCCCS(=O)(=O)N(C)c1c(SC(F)(F)F)c(C#N)nn1-c1c(Cl)cc(C(F)(F)F)cc1Cl [Compound 1-124]	active
CCCCCCCCCCS(=O)(=O)N(C)c1c(SC(F)(F)F)c(C#N)nn1-c1c(Cl)cc(C(F)(F)F)cc1Cl [Compound 1-125]	active
CCCCCCCCCCCCS(=O)(=O)N(C)c1c([S+]([O-])C(F)(F)F)c(C#N)nn1-c1c(Cl)cc(C(F)(F)F)cc1Cl (centres unmarked) [Compound 1-126]	active
CN(c1c(SC(F)(F)F)c(C#N)nn1-c1c(Cl)cc(C(F)(F)F)cc1Cl)S(=O)(=O)Cc1ccccc1 [Compound 2-2]	active
CN(c1c([S+]([O-])C(F)(F)F)c(C#N)nn1-c1c(Cl)cc(C(F)(F)F)cc1Cl)S(=O)(=O)Cc1ccccc1 (centres unmarked) [Compound 2-16, 1-(2,6-Dichloro-4-trifluoromethylphenyl)-3-cyano-5-(N-benzylsulfonyl-N-methylamino)-4-trifluoromethylsulfinylpyrazole]	active
CN(c1c(S(=O)(=O)C(F)(F)F)c(C#N)nn1-c1c(Cl)cc(C(F)(F)F)cc1Cl)S(=O)(=O)Cc1ccccc1 [Compound 2-30]	active
CN(c1c(SC(F)(F)F)c(C#N)nn1-c1c(Cl)cc(C(F)(F)F)cc1Cl)S(=O)(=O)Cc1ccc(Cl)cc1 [Compound 2-45]	active
CN(c1c(SC(F)(F)F)c(C#N)nn1-c1c(Cl)cc(C(F)(F)F)cc1Cl)S(=O)(=O)Cc1ccc(Cl)c(Cl)c1 [Compound 2-48]	active
CN(c1c(SC(F)(F)F)c(C#N)nn1-c1c(Cl)cc(C(F)(F)F)cc1Cl)S(=O)(=O)Cc1ccc(F)cc1 [Compound 2-51]	active
CN(c1c(SC(F)(F)F)c(C#N)nn1-c1c(Cl)cc(C(F)(F)F)cc1Cl)S(=O)(=O)Cc1cccc(C(F)(F)F)c1 [Compound 2-57]	active
CN(c1c(SC(F)(F)F)c(C#N)nn1-c1c(Cl)cc(C(F)(F)F)cc1Cl)S(=O)(=O)Cc1ccc(C(F)(F)F)cc1 [Compound 2-58]	active
Cc1ccc(CS(=O)(=O)N(C)c2c(SC(F)(F)F)c(C#N)nn2-c2c(Cl)cc(C(F)(F)F)cc2Cl)cc1 [Compound 2-74]	active
CN(c1c([S+]([O-])C(F)(F)F)c(C#N)nn1-c1c(Cl)cc(C(F)(F)F)cc1Cl)S(=O)(=O)Cc1ccc(Cl)cc1 (centres unmarked) [Compound 2-80]	active
CN(c1c([S+]([O-])C(F)(F)F)c(C#N)nn1-c1c(Cl)cc(C(F)(F)F)cc1Cl)S(=O)(=O)Cc1ccc(F)cc1 (centres unmarked) [Compound 2-86]	active
CN(c1c([S+]([O-])C(F)(F)F)c(C#N)nn1-c1c(Cl)cc(C(F)(F)F)cc1Cl)S(=O)(=O)Cc1cccc(C(F)(F)F)c1 (centres unmarked) [Compound 2-92]	active
